Laboratory results reported in ChEMBL document CHEMBL1201862, “PubChem BioAssay data set” (2004).
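Values below derive from 48-hour exposures of cells grown in 96-well plates, with endpoints linearly interpolated between the two concentrations bracketing the appropriate inhibition level. At the GI50, growth is halved.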 Active and inactive are the calls of the source. No stated cut-off is given here; in the data, active = GI50 up to about 1.1 µM and inactive = higher.

Legend:
Assay in all cases: DTP human tumour cell line panel, 48 h
MDA-MB-231 = system: MDA-MB-231
MCF7 = system: MCF7
A498 = system: A498
Malme-3M = system: Malme-3M
UACC-257 = system: UACC-257
TK-10 = system: TK-10
EKVX = system: EKVX
UACC-62 = system: UACC-62
T47D = system: T47D
UO-31 = system: UO-31
RPMI-8226 = system: RPMI-8226
SW-620 = system: SW-620
SK-MEL-2 = system: SK-MEL-2
HCT-15 = system: HCT-15
MOLT-4 = system: MOLT-4
HCT-116 = system: HCT-116
NCI-H226 = system: NCI-H226
OVCAR-5 = system: OVCAR-5
COLO 205 = system: COLO 205
SK-OV-3 = system: SK-OV-3
SN12C = system: SN12C
CAKI-1 = system: CAKI-1
SF-268 = system: SF-268
RXF 393 = system: RXF 393
MDA-MB-435 = system: MDA-MB-435
HOP-62 = system: HOP-62
K562 = system: K562
Hs-578T = system: Hs-578T
HT-29 = system: HT-29
SR = system: SR
PC-3 = system: PC-3
SF-295 = system: SF-295
CCRF-CEM = system: CCRF-CEM
NCI-H460 = system: NCI-H460
SK-MEL-28 = system: SK-MEL-28
OVCAR-4 = system: OVCAR-4
HCC 2998 = system: HCC 2998
NCI-H23 = system: NCI-H23
MDA-N = system: MDA-N
NCI/ADR-RES = system: NCI/ADR-RES
A549 = system: A549
IGROV-1 = system: IGROV-1
HOP-92 = system: HOP-92
HL-60 = system: HL-60
U-251 = system: U-251
KM12 = system: KM12
SF-539 = system: SF-539
SK-MEL-5 = system: SK-MEL-5
LOX IMVI = system: LOX IMVI
OVCAR-3 = system: OVCAR-3
786-0 = system: 786-0
OVCAR-8 = system: OVCAR-8
ACHN = system: ACHN
SNB-19 = system: SNB-19
M14 = system: M14
BT-549 = system: BT-549
DU-145 = system: DU-145
SNB-75 = system: SNB-75
NCI-H522 = system: NCI-H522

For `CC(=O)O[C@H]1CCC2[C@@H]3CCC4NC(=O)C(C#N)C[C@]4(C)C3CC[C@@]21C` (stereo not given in full), the GI50 (MDA-MB-231) was > 10 µM (inactive), the GI50 (MCF7) was > 10 µM (inactive) and the GI50 (A498) was > 10 µM (inactive). The GI50 (Malme-3M) was > 10 µM (inactive), the GI50 (UACC-257) was > 10 µM (inactive) and the GI50 (TK-10) was > 10 µM (inactive). The GI50 (EKVX) was 8.17 µM (inactive), the GI50 (UACC-62) was > 10 µM (inactive) and the GI50 (T47D) was > 10 µM (inactive). The GI50 (UO-31) was > 10 µM (inactive), the GI50 (RPMI-8226) was > 10 µM (inactive) and the GI50 (SW-620) was > 10 µM (inactive). For the same molecule, the GI50 (SK-MEL-2) was > 10 µM (inactive), the GI50 (HCT-15) was over 10 µM and the GI50 (MOLT-4) was > 10 µM (inactive). The GI50 (HCT-116) was > 10 µM (inactive), the GI50 (NCI-H226) was > 10 µM (inactive) and the GI50 (OVCAR-5) was > 10 µM (inactive). The GI50 (COLO 205) was > 10 µM (inactive), the GI50 (SK-OV-3) was > 10 µM (inactive) and the GI50 (SN12C) was > 10 µM (inactive). For the same molecule, the GI50 (CAKI-1) was > 10 µM (inactive), the GI50 (SF-268) was > 10 µM (inactive) and the GI50 (RXF 393) was > 10 µM (inactive). For the same molecule, the GI50 (MDA-MB-435) was > 10 µM (inactive), the GI50 (HOP-62) was > 10 µM (inactive) and the GI50 (K562) was > 10 µM (inactive). For the same molecule, the GI50 (Hs-578T) was 3.96 µM (inactive), the GI50 (HT-29) was > 10 µM (inactive) and the GI50 (SR) was > 10 µM (inactive). For the same molecule, the GI50 (PC-3) was > 10 µM (inactive), the GI50 (SF-295) was > 10 µM (inactive) and the GI50 (CCRF-CEM) was > 10 µM (inactive). The GI50 (NCI-H460) was > 10 µM (inactive), the GI50 (SK-MEL-28) was > 10 µM (inactive) and the GI50 (OVCAR-4) was > 10 µM (inactive). The GI50 (HCC 2998) was > 10 µM (inactive), the GI50 (NCI-H23) was > 10 µM (inactive) and the GI50 (MDA-N) was > 10 µM (inactive). The GI50 (NCI/ADR-RES) was > 10 µM (inactive), the GI50 (A549) was > 10 µM (inactive) and the GI50 (IGROV-1) was > 10 µM (inactive). For the same molecule, the GI50 (HOP-92) was > 10 µM (inactive), the GI50 (HL-60) was > 10 µM (inactive) and the GI50 (U-251) was > 10 µM (inactive). The GI50 (KM12) was > 10 µM (inactive), the GI50 (SF-539) was > 10 µM (inactive) and the GI50 (SK-MEL-5) was > 10 µM (inactive). The GI50 (LOX IMVI) was > 10 µM (inactive), the GI50 (OVCAR-3) was > 10 µM (inactive) and the GI50 (786-0) was > 10 µM (inactive). The GI50 (OVCAR-8) was > 10 µM (inactive), the GI50 (ACHN) was > 10 µM (inactive) and the GI50 (SNB-19) was > 10 µM (inactive). For the same molecule, the GI50 (M14) was > 10 µM (inactive), the GI50 (BT-549) was > 10 µM (inactive) and the GI50 (DU-145) was > 10 µM (inactive).
For `O=c1oc2ccccc2cc1-c1csc(Nc2ccc(F)cc2)n1`, the GI50 (MDA-MB-231) was 11.3 µM (inactive), the GI50 (MCF7) was 2.77 µM (inactive) and the GI50 (A498) was 1.29 µM (inactive). The GI50 (UACC-257) was 14.8 µM (inactive), the GI50 (TK-10) was 2.98 µM (inactive) and the GI50 (EKVX) was 1.97 µM (inactive). The GI50 (UACC-62) was 12.6 µM (inactive), the GI50 (T47D) was 2.3 µM (inactive) and the GI50 (UO-31) was 2.33 µM (inactive). For the same molecule, the GI50 (RPMI-8226) was 0.216 µM (active), the GI50 (SW-620) was 5 µM (inactive) and the GI50 (SK-MEL-2) was 14.8 µM (inactive). For the same molecule, the GI50 (HCT-15) was 2.86 µM, the GI50 (MOLT-4) was 5.18 µM (inactive) and the GI50 (HCT-116) was 2.33 µM (inactive). The GI50 (NCI-H226) was 3.1 µM (inactive), the GI50 (OVCAR-5) was 8.38 µM (inactive) and the GI50 (COLO 205) was 4.47 µM (inactive). For the same molecule, the GI50 (SK-OV-3) was 5.77 µM (inactive), the GI50 (SN12C) was 3.01 µM (inactive) and the GI50 (CAKI-1) was 2.94 µM (inactive). The GI50 (SF-268) was 3.15 µM (inactive), the GI50 (RXF 393) was 6.56 µM (inactive) and the GI50 (MDA-MB-435) was 4.32 µM (inactive). For the same molecule, the GI50 (HOP-62) was 2.99 µM (inactive), the GI50 (K562) was 2.56 µM (inactive) and the GI50 (SNB-75) was 2.07 µM (inactive). For the same molecule, the GI50 (Hs-578T) was 2.36 µM (inactive), the GI50 (NCI-H522) was 1.91 µM (inactive) and the GI50 (HT-29) was 3.43 µM (inactive). For the same molecule, the GI50 (SR) was 2.36 µM (inactive), the GI50 (PC-3) was 5.43 µM (inactive) and the GI50 (SF-295) was 3.62 µM (inactive). For the same molecule, the GI50 (CCRF-CEM) was 2.77 µM (inactive), the GI50 (NCI-H460) was 5.05 µM (inactive) and the GI50 (SK-MEL-28) was 0.382 µM (active). The GI50 (OVCAR-4) was 7.31 µM (inactive), the GI50 (HCC 2998) was 5.48 µM (inactive) and the GI50 (NCI-H23) was 2.9 µM (inactive). For the same molecule, the GI50 (MDA-N) was 4.66 µM (inactive), the GI50 (NCI/ADR-RES) was 3.46 µM (inactive) and the GI50 (A549) was 1.67 µM (inactive). For the same molecule, the GI50 (IGROV-1) was 4.99 µM (inactive), the GI50 (HOP-92) was 6.53 µM (inactive) and the GI50 (HL-60) was 4.59 µM (inactive). For the same molecule, the GI50 (U-251) was 2.83 µM (inactive), the GI50 (KM12) was 5.5 µM (inactive) and the GI50 (SF-539) was 1.91 µM (inactive). For the same molecule, the GI50 (SK-MEL-5) was 10.4 µM (inactive), the GI50 (LOX IMVI) was 4.7 µM (inactive) and the GI50 (OVCAR-3) was 6.55 µM (inactive). The GI50 (786-0) was 1.79 µM (inactive), the GI50 (OVCAR-8) was 2.77 µM (inactive) and the GI50 (ACHN) was 8.55 µM (inactive). The GI50 (SNB-19) was 8.15 µM (inactive), the GI50 (M14) was 4.25 µM (inactive) and the GI50 (BT-549) was 6.47 µM (inactive). For the same molecule, the GI50 (DU-145) was 2.89 µM (inactive).
